# Test results taken from US6068687A, “Azo dyes and their preparation and use” (Ilford Imaging Switzerland GmbH, priority 1997, dated 2000).
# Legend:
# [1] = Dye solubility in deionised water (spectroscopic determination in filtered solution); type: physicochemical; conditions: for Solubility compared with previously known dye (in words): comparison with known dye, Table 4; for Solubility: deionised water, stirred 1 hour at 50° C, cooled to 20° C, filtered
# Procedure: An excess of dye was dispersed in deionised water and this dispersion was stirred for 1 hour at 50° C. Then the mixture was cooled down to 20° C., centrifuged and filtered through a Millipore® filter of 0.5 μm pore diameter. Dye solubility was determined spectroscopically in the filtered solution.
# [2] = Hydrolysis stability (pH change of 5% aqueous dye solution on storage); type: physicochemical; conditions: for pH change during storage: 5% by weight aqueous solution, initial pH 7.0, 60° C, 30 days; for Stability against hydrolysis compared with known dye (2) (in words): comparison with dye (2), Table 4
# Procedure: An aqueous solution (5% by weight) was prepared and the pH value of this solution was adjusted to 7.0. The solution was filtered through a Millipore® filter of 0.5 μm pore diameter. The filtered solution was then heated to a temperature of 60° C. for 30 days, cooled down afterwards to a temperature of 20° C. and the pH value was measured again. The difference of the pH values before and after storage is an indicator of hydrolysis stability.
# [3] = Storage stability of inks (precipitation); type: physicochemical; set-up: key: ⊕: No precipitation; .diamond.: Slight precipitation; .O slashed.: Heavy precipitation; conditions: ink, 0° C, 30 days, hermetically sealed bottles
# Procedure: (§1) 100 g of each ink were prepared by heating the necessary components from Table 3 (all amounts are indicated in grams) together with water at a temperature of 50° C. under stirring for one hour. The resulting solution was cooled down to 20° C., its pH value was adjusted to 7.5 and the solution was passed through a Millipore® filter of 0.5 μm pore diameter.
# The inks were stored at a temperature of 0° C. for 30 days in hermetically sealed bottles. The quantity of precipitate eventually formed was evaluated in the following way: […]
# [4] = Jetting stability of inks (IRIS ink jet printer nozzle); set-up: key: ⊕: Unchanged; .diamond.: Slightly changed; .O slashed.: Heavily changed; conditions: 100 hours continual jetting, exit angle and nozzle condition
# Procedure: as §1
# The inks were expelled continually during 100 hours from a nozzle of the IRIS ink jet printer. Afterwards the change of the exit angle of the ink stream and the condition of the nozzle were evaluated in the following way: […]
Structure (SMILES),Solubility compared with previously known dye (in words) [1],Solubility [1],pH change during storage [2],Stability against hydrolysis compared with known dye (2) (in words) [2],(C) Storage stability [3],(D) Jetting stability [4]
CCOc1nc(Nc2cc(C)c(N=Nc3cc(S(=O)(=O)O)c4cccc(S(=O)(=O)O)c4c3)cc2OC)nc(SCCCS(=O)(=O)O)n1 [(100)],considerably higher solubility than the previously known dye (2),32 g per 100 ml,0,much better stability against hydrolysis than the known dye (2),⊕,⊕
COc1cc(N=Nc2cc(S(=O)(=O)O)c3cccc(S(=O)(=O)O)c3c2)c(C)cc1Nc1nc(SCCCS(=O)(=O)O)nc(N(C)CCO)n1 [(120)],considerably higher solubility than the previously known dye (2),34 g per 100 ml,0,much better stability against hydrolysis than the known dye (2),⊕,⊕
CCN(c1ccccc1)c1nc(Nc2cc(S(=O)(=O)O)cc3cc(S(=O)(=O)O)c(N=Nc4ccccc4S(=O)(=O)O)c(O)c23)nc(SCCCS(=O)(=O)O)n1 [(117)],,,,,⊕,⊕
COc1cc(N=Nc2cc(S(=O)(=O)O)c3cccc(S(=O)(=O)O)c3c2)c(C)cc1Nc1nc(SCCCS(=O)(=O)O)nc(SCCCS(=O)(=O)O)n1 [(2)],,34 g per 100 ml,-0.5,,⊕,⊕
Nc1ccc2cc(S(=O)(=O)O)cc(O)c2c1N=Nc1ccc(Nc2nc(SCCCS(=O)(=O)O)nc(N(CCO)CCO)n2)cc1S(=O)(=O)O [(121)],considerably higher solubility than the previously known dye (2),38 g per 100 ml,-0.1,much better stability against hydrolysis than the known dye (2),⊕,⊕
CCOc1nc(Nc2ccc(N=Nc3c(N)ccc4cc(S(=O)(=O)O)cc(O)c34)c(S(=O)(=O)O)c2)nc(SCCCS(=O)(=O)O)n1 [(113)],considerably higher solubility than the previously known dye (2),32 g per 100 ml,-0.1,much better stability against hydrolysis than the known dye (2),⊕,⊕
Nc1ccc2cc(S(=O)(=O)O)cc(O)c2c1N=Nc1ccc(Nc2nc(NCCO)nc(Nc3cccc(S(=O)(=O)O)c3)n2)cc1S(=O)(=O)O [(1)],,12 g per 100 ml,-0.2,,.diamond.,.diamond.
